Test results taken from PMC6539495, “Anti-Cancer Activity of Novel Dihydrotestosterone-Derived Ring A-Condensed Pyrazoles on Androgen Non-Responsive Prostate Cancer Cell Lines” (International Journal of Molecular Sciences, 2019).

What was measured:
[1] = test system: PC-3 cells; assay: MTT cell viability assay on PC-3 prostate cancer cells; assay type: cell-based, human; settings: for antiproliferative potency against PC-3 prostate cancer cells compared to MRC-5 non-cancerous fibroblasts: primary screen
Method: (§1) HeLa, MCF-7 and MDA-MB-231 cells were obtained from Sigma-Aldrich and maintained as reported previously. MRC-5, PC-3, DU 145 cells were purchased from American Type Culture Collection (ATCC, Manassas, VA, USA). PC-3 and DU 145 were maintained in RPMI medium (Sigma-Aldrich) whereas MRC-5 cells were maintained in DMEM medium (Sigma-Aldrich). All media were complemented with 10% Fetal bovine serum (FBS, Sigma-Aldrich) 2 mM L-glutamine, 0.01% streptomycin and 0.005% ampicillin (Sigma-Aldrich). Cells were cultured under standard conditions in a 37 °C incubator containing 5% CO2 in 95% humidity.
(§2) Each test compound was dissolved in cell culture grade DMSO (Molar Chemicals, Halásztelek, Hungary) in a final concentration of […]. Antiproliferative action of the synthesized steroids was investigated by MTT assay. An amount of 5000 cells/well were seeded into 96 well plates. Twenty-four hours post seeding, all cell lines were treated with each compound in 10 and 30 μM concentrations for 72 hours. […] After 72 hours, cells were washed with PBS and incubated with culture medium containing 0.5 mg/mL MTT (3-(4, 5-dimethylthiazolyl-2)-2,5-diphenyltetrazolium bromide) reagent (SERVA, GmbH, Heidelberg, Germany) for an hour at 37 °C. Formazan crystals were solubilized in DMSO and extinction was measured at 570 nm using a Synergy HTX plate reader (BioTech-Hungary, Budapest, Hungary). MTT assays were performed at least three times using four independent biological replicates. Data were normalized to solvent controls and the graphical representation of the obtained data as well as the calculation of IC50 values were carried out by GraphPad Prism 7 software (GraphPad Software; San Diego, CA, USA).

[2] = test system: MRC-5 cells; assay: MTT cell viability assay on non-cancerous MRC-5 fibroblasts; assay type: cell-based; settings: 72 hours, MTT
Method: as §1, §2

[3] = test system: MDA-MB-231 cells; assay: MTT cell viability assay on MDA-MB-231 breast cancer cells; assay type: cell-based, human; settings: 72 hours
Method: as §1, §2

[4] = test system: MCF-7 cells; assay: MTT cell viability assay on MCF-7 breast cancer cells; assay type: cell-based, human; settings: 72 hours
Method: as §1, §2

[5] = test system: DU 145 cells; assay: MTT cell viability assay on DU 145 prostate cancer cells; assay type: cell-based, human; settings: 72 hours
Method: as §1, §2

[6] = test system: HeLa cells; assay: MTT cell viability assay on HeLa cervical cancer cells; assay type: cell-based, human; settings: 72 hours
Method: as §1, §2

SMILES	Mean values (%) of primary growth inhibitory screen (viability in %), PC-3 ([1]; 10 µM, 72 hours, MTT) [%]	Mean values (%) of primary growth inhibitory screen (viability in %), PC-3 ([1]; 30 µM, 72 hours, MTT) [%]	antiproliferative potency against PC-3 prostate cancer cells compared to MRC-5 non-cancerous fibroblasts ([1]; 30 µM)	Mean values (%) of primary growth inhibitory screen (viability in %), MRC-5 ([2]; 10 µM) [%]	Mean values (%) of primary growth inhibitory screen (viability in %), MRC-5 ([2]; 30 µM) [%]	Mean values (%) of primary growth inhibitory screen (viability in %), MDA-MB-231 ([3]; 10 µM) [%]	Mean values (%) of primary growth inhibitory screen (viability in %), MDA-MB-231 ([3]; 30 µM) [%]	Mean values (%) of primary growth inhibitory screen (viability in %), MCF-7 ([4]; 10 µM) [%]	Mean values (%) of primary growth inhibitory screen (viability in %), MCF-7 ([4]; 30 µM) [%]	Mean values (%) of primary growth inhibitory screen (viability in %), DU 145 ([5]; 10 µM) [%]	Mean values (%) of primary growth inhibitory screen (viability in %), DU 145 ([5]; 30 µM) [%]	Mean values (%) of primary growth inhibitory screen (viability in %), HeLa ([6]; 10 µM) [%]	Mean values (%) of primary growth inhibitory screen (viability in %), HeLa ([6]; 30 µM) [%]	antiproliferative potency against PC-3 prostate cancer cells compared to MRC-5 non-cancerous fibroblasts ([1]; 10 µM)	IC50 ([1]; MTT, 72 hours, ± SD) [µM]	IC50 ([2]; ± SD) [µM]	IC50 ([3]; ± SD) [µM]	IC50 ([4]; ± SD) [µM]	IC50 ([5]; ± SD) [µM]	IC50 ([6]; ± SD) [µM]
Cc1ccccc1-n1nc2c(c1C)C[C@@]1(C)[C@@H](CC[C@@H]3[C@@H]1CC[C@]1(C)C(=O)CC[C@@H]31)C2 [5b, 1′-(2″-Tolyl)-5′-methylpyrazolo[3′,4′:3,2]-5α-androst-17-one]	62.3	43.2	significantly higher	93.2	66.2	83.0	76.9	59.3	63.6	82.3	58.4	65.5	66.8	–	–	–	–	–	–	–
Cc1ccc(-n2nc3c(c2C)CC2(C)C(CCC4C5CCC(=O)C5(C)CCC42)C3)cc1 (stereo not drawn) [5c, 1′-(4″-Tolyl)-5′-methylpyrazolo[3′,4′:3,2]-5α-androst-17-one]	68.1	43.6	–	89.1	62.5	78.7	66.2	63.6	48.7	86.3	51.1	46.3	38.5	–	–	–	–	–	–	–
Cc1ccc(-n2nc3c(c2C)C[C@@]2(C)[C@@H](CC[C@@H]4[C@@H]2CC[C@]2(C)C(=O)CC[C@@H]42)C3)c(C)c1 [5d, 1′-(2″,4″-Dimethylphenyl)-5′-methylpyrazolo[3′,4′:3,2]-5α-androst-17-one]	52.1	14.6	–	80.1	21.3	77.2	54.1	56.3	13.3	65.6	10.0	39.5	30.7	–	–	–	–	–	–	–
COc1ccc(-n2nc3c(c2C)C[C@@]2(C)[C@@H](CC[C@@H]4[C@@H]2CC[C@]2(C)C(=O)CC[C@@H]42)C3)cc1 [5e, 1′-(4″-Methoxyphenyl)-5′-methylpyrazolo[3′,4′:3,2]-5α-androst-17-one]	45.5	29.7	significantly higher	79.3	79.3	72.0	61.5	53.5	36.3	62.1	48.1	38.4	41.8	–	–	–	–	–	–	–
Cc1c2c(nn1-c1ccc(F)cc1)C[C@@H]1CC[C@@H]3[C@H](CC[C@]4(C)C(=O)CC[C@@H]34)[C@@]1(C)C2 [5f, 1′-(4″-Fluorophenyl)-5′-methylpyrazolo[3′,4′:3,2]-5α-androst-17-one]	54.3	17.6	significantly higher	83.9	66.1	82.3	66.0	72.6	30.6	74.9	50.7	40.5	50.5	significantly higher	–	–	–	–	–	–
Cc1c2c(nn1-c1ccc(Cl)cc1)C[C@@H]1CC[C@@H]3[C@H](CC[C@]4(C)C(=O)CC[C@@H]34)[C@@]1(C)C2 [5g, 1′-(4″-Chlorophenyl)-5′-methylpyrazolo[3′,4′:3,2]-5α-androst-17-one]	54.7	11.8	–	94.4	18.1	65.7	65.1	56.3	28.0	73.7	23.2	38.7	39.0	significantly higher	–	–	–	–	–	–
Cc1c2c(nn1-c1ccc(C#N)cc1)C[C@@H]1CC[C@@H]3[C@H](CC[C@]4(C)C(=O)CC[C@@H]34)[C@@]1(C)C2 [5i, 1′-(4″-Cyanophenyl)-5′-methylpyrazolo[3′,4′:3,2]-5α-androst-17-one]	56.2	70.0	–	90.4	87.9	70.6	59.7	53.2	39.4	83.3	79.9	42.2	36.4	–	–	–	–	–	–	–
Cc1c2c(nn1-c1ccc([N+](=O)[O-])cc1)C[C@@H]1CC[C@@H]3[C@H](CC[C@]4(C)C(=O)CC[C@@H]34)[C@@]1(C)C2 [5j, 1′-(4″-Nitrophenyl)-5′-methylpyrazolo[3′,4′:3,2]-5α-androst-17-one]	36.8	16.0	significantly higher	94.8	44.6	83.5	71.7	46.5	14.4	73.0	42.8	47.4	29.4	significantly higher	6.7 ± 1.1	25.5 ± 2.3	> 30	11.3 ± 2.8	13.5 ± 1.1	10.4 ± 0.1
